The values below come from patent US12044651B2, “Sensor device and methods” (SCENTIAN BIO LIMITED, priority 2016, dated 2024).

A short description of assay [1]: QCM-D control with empty liposomes (Example 6). As to conditions: empty liposomes immobilised on the QCM. The procedure: Gold (100 nm) sensor crystals were sonicated in ethanol and milli-Q water for 15 minutes each respectively. A 5:1:1 volume ratio of milli-Q water, ammonia (25%), and hydrogen peroxide (30%) was heated to 75° C. for 5 minutes and the sonicated crystals were placed in the heated solution for 5 minutes. Then the crystals were removed from the solution and rinsed with milli-Q water before drying with nitrogen gas. The clean gold crystals were thiol-functionalized by exposing them to 2 mM ethanolic solution of MHA overnight followed by washing with ethanol solution in order to remove excess or loosely bound molecules. The SAM functionalized crystals were then placed into the Q-sense analyser instrument (Biolin Scientific) chamber and flowed with the NHS/EDC, OR22a/liposomes and various concentrations of methyl hexanoate (1.6 μM, 8 μM, 40 μM, 200 μM and 1 mM) in PBS buffer solution to measure the changes in frequency (Δf) and dissipation (ΔD) values.

A further assay has as its target T1, Or22a (Drosophila melanogaster, UniProt P81909).
T1 sequence (P81909 1-397): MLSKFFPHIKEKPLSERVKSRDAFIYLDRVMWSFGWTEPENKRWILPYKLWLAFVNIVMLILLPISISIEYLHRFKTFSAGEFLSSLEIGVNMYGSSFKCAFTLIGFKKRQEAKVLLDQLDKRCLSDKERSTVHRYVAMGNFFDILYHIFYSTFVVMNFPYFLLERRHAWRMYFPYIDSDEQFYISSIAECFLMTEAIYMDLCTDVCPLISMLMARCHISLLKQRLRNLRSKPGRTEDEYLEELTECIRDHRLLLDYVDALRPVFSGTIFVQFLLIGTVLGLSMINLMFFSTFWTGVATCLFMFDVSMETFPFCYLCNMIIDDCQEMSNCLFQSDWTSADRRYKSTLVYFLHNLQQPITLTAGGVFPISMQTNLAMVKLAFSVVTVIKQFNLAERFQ
Description: EIS sensor, Or22a liposomes on gold electrode (Example 1). Type of assay: binding. As to conditions: Or22a liposomes, EIS. As to the method: Liposomes were prepared using a phospholipid solution produced by evaporating solutions containing: phosphatidylethanolamine (PE), phosphatidylserine (PS), phosphatidylcholine (PC), and cholesterol (CH) at a molar ratio of 5:3:3:1 in a small glass tube under a stream of N2 gas, then desiccating under vacuum for 1 h. […] To promote the formation of liposomes, 10 freeze/thaw steps were performed by transferring the tube from liquid nitrogen to a 40° C. water bath. Liposomes were then sized by passing the lipid solution 11 times through a 100-nm polycarbonate membrane using an Avestin LiposoFAST extruder unit (Avestin, Germany). Glycerol was added at 10% of the final volume and aliquots at 10 mg/mL were snap frozen in liquid nitrogen and stored at -80° C. Prior to their use, liposomes were defrosted on ice and then destabilized by incubating with 0.2% CHAPS for 15 min at room temperature. Then 200 μg of purified odorant receptor^14 was added to 1 mg of liposomes and rotated at 10 rpm for 1 h at room temperature. […] The Bio-Beads were removed after each incubation period. The OR integrated liposomes were pelleted by centrifugation at 100,000 g for 1 h, and were resuspended in 500 μL of rehydration buffer. Integration of OrXs into liposomes was assessed by density gradient ultracentrifugation (DGU) using Accudenz (Accurate Chemical & Scientific Corporation, USA). […] The sample was then centrifuged at 100,000 g for 4 h at 4° C. Liposomes will float to the top of the gradient after Accudenz DGU due to their low density. 1.3 Electrode Cleaning Gold disk (2 mm) electrodes were cleaned with polishing with Alumina paste for 2 minutes, ultra-sonicated in pure ethanol and then Milli-Q water for 5 minutes each. […] Charge transfer resistance (Rct) of electrodes were calculated by fitting obtained data to a Randles' equivalent circuit [Rs+CPE/(Rct+W)] comprising of a solution resistance (Rs) in series with a constant phase element (CPE) and in parallel with charge transfer resistance (Rct) and Warburg diffusion element. […]

Structures are written as SMILES.

The EC50 is the concentration giving half of the maximal effect. For `CCCCCC(=O)OC` [methyl hexanoate], the “increase in oscillation frequency” value in assay [1] is “not observed”. Besides, the half-maximal effective concentration (EC50) on Or22a is approximately 10 nM. The “Sensitivity limit (lowest detectable concentration)” value at Or22a (signal/noise >3) came to 280 pM.
